Test results reported in patent publication US7365095B2, “Chromane and chromene derivatives and uses thereof” (Wyeth, priority 2005, dated 2008).
Structures can show the parent of a compound that is named as a salt.

How the values were obtained:
[1] = target: T1, human 5-hydroxytryptamine-2C (h5-HT2C) receptor (Homo sapiens, UniProt P28335); assay: [125I]DOI binding to membranes of CHO cells expressing h5-HT2C receptor; details: read-out: 5-HT2C Binding Ki avg
T1 construct: expressed in transfected cells; host or cells: CHO (Chinese Hamster Ovary) cells; membrane preparation
T1 sequence (P28335 33-458): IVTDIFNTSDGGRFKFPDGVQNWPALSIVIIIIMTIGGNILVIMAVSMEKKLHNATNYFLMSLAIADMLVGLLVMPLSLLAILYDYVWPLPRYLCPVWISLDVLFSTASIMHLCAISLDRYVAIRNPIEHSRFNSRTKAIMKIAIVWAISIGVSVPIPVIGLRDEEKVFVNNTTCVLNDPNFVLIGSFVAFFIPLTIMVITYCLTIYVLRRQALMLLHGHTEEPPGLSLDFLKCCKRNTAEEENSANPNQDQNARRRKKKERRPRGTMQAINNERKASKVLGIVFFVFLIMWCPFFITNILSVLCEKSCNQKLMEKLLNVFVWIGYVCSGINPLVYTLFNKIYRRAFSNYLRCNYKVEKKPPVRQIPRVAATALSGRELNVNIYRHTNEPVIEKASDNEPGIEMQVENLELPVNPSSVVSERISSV

[2] = target: T2, human 5-HT2C receptor (Homo sapiens, UniProt P28335); assay: calcium mobilization (FLIPR) in CHO cells stably expressing the human 5-HT2C receptor; type: cell-based; details: for Emax: CHO, read-out: 5-HT2C Function EMax (%); for EC50: calcium mobilization, read-out: 5-HT2C Function EC50
T2 sequence (P28335 33-458): T1 sequence (P28335 33-458)

[3] = obesity model, reduction of food intake in C57BL/6J-DIO mice; type: in vivo
Description: (§1) To evaluate acute in vivo efficacy of various compounds, 7 weeks-old male C57BL/6J mice are obtained from The Jackson Laboratory (Bar Harbor, Me.) and 6 weeks-old lean Zucker fa/? rats are purchased from Charles River Laboratories (Wilmington, Mass.). Mice and rats are single housed in a temperature-controlled (25° C.) facility with a 12-h light/dark cycle. Animals are allowed normal chow diet (Rodent chow #5001, PharmaServ, Framingham, Mass.) and water ad libitum. After one week acclimation, animals are randomized to vehicle (saline) or treatment groups. Animals are fasted overnight (16 hrs) and orally dosed with vehicle or compounds. Thirty minutes after compound administration, animals are given a weighed amount of food, and food intake was recorded 30 minutes, 1 h, 2 h, 4 h, 7 h and 24 h after refeeding.
(§2) To assess in vivo efficacy of various 5-HT2C compounds on weight loss, 5 weeks-old male C57BL/6J-DIO mice were fed a high-fat high-sucrose diet (58 kcal % fat, 16.4 kcal % protein, 25.5 kcal % carbohydrate) for 11 weeks. 6 weeks-old male Zucker fa/fa rats purchased from Charles River Laboratories were also used. Mice and rats were single housed in a temperature-controlled (25° C.) facility with a 12-h light/dark cycle. Animals were allowed food and water ad libitum. After one week acclimation, animals were randomized to vehicle (saline) or treatment groups. Animals were orally dosed once daily for 14 days. Body weight, food consumption, and/or body composition (NMR) were recorded. Epidydimal adipose tissue was collected at the end of the study.

[4] = obesity model, reduction of food intake in Zucker rats; type: in vivo
Description: as §1, §2

COc1ccccc1-c1cc(F)cc2c1O[C@@H](CN)C=C2 (as salt: hydrochloride) [Compound 65, {[(2R)-6-fluoro-8-(2-methoxyphenyl)-2H-chromen-2-yl]methyl}amine hydrochloride]
melting point: 198 to 200 °C

NC[C@H]1C=Cc2cc(F)cc(-c3ccccc3Cl)c2O1 (as salt: hydrochloride) [Compound 64, {[(2R)-8-(2-chlorophenyl)-6-fluoro-2H-chromen-2-yl]methyl}amine hydrochloride]
melting point: 145 to 147 °C

NC[C@H]1C=Cc2cc(F)cc(-c3cc(Cl)ccc3Cl)c2O1 (as salt: hydrochloride) [Compound 63, {[(2R)-8-(2,5-dichlorophenyl)-6-fluoro-2H-chromen-2-yl]methyl}amine hydrochloride]
melting point: 217 to 219 °C

NC[C@H]1CCc2ccc(F)c(-c3ccc(Cl)cc3Cl)c2O1 (as salt: hydrochloride)
melting point: 164 to 166 °C

COc1ccccc1-c1cc(F)cc2c1O[C@@H](CN)CC2 (as salt: hydrochloride) [Compound 38, 1-[(2R)-6-fluoro-8-(2-methoxyphenyl)-3,4-dihydro-2H-chromen-2-yl]methanamine hydrochloride]
melting point: 100 °C (dec.)

NC[C@H]1CCc2cccc(-c3c(Cl)cccc3Cl)c2O1 [Compound 36, {[(2R)-8-(2,6-dichlorophenyl)-3,4-dihydro-2H-chromen-2-yl]methyl}amine hydrochloride]
Ki [1]: ≤ 10 nM | Emax [2]: 80% | EC50 [2]: < 50 nM | % Reduction food intake (vs vehicle) ([3]; 30 mpk oral, 0.5 hour): 86 ± 11% | % Reduction food intake (vs vehicle) ([3]; 30 mpk oral, 2 hours): 72 ± 7% | % Reduction food intake (vs vehicle) ([3]; 30 mpk oral, 4 hours): 65 ± 8% | % Reduction food intake (vs vehicle) ([3]; 50 mpk oral, 0.5 hour): 83 ± 6% | % Reduction food intake (vs vehicle) ([3]; 50 mpk oral, 2 hours): 77 ± 6% | % Reduction food intake (vs vehicle) ([3]; 50 mpk oral, 4 hours): 67 ± 9% | % Reduction food intake (vs vehicle) ([4]; 30 mpk oral, 0.5 hour): 0 ± 16% | % Reduction food intake (vs vehicle) ([4]; 30 mpk oral, 2 hours): 0 ± 8% | % Reduction food intake (vs vehicle) ([4]; 30 mpk oral, 4 hours): 0 ± 9% | % Reduction food intake (vs vehicle) ([4]; 50 mpk oral, 0.5 hour): 58 ± 9% | % Reduction food intake (vs vehicle) ([4]; 50 mpk oral, 2 hours): 11 ± 17% | % Reduction food intake (vs vehicle) ([4]; 50 mpk oral, 4 hours): 0 ± 13%

NC[C@H]1CCc2ccc(Cl)c(-c3ccccc3Cl)c2O1 (as salt: hydrochloride)
melting point: 220 to 222 °C

Cc1ccccc1-c1c(Cl)ccc2c1O[C@@H](CN)CC2 (as salt: hydrochloride) [Compound 69, ((2R)-7-Chloro-8-o-tolylchroman-2-yl)methanamine hydrochloride]
melting point: 155 °C

NC[C@H]1C=Cc2cc(F)cc(-c3c(Cl)cccc3Cl)c2O1 (as salt: hydrochloride) [Compound 66, {[(2R)-8-(2,6-dichlorophenyl)-6-fluoro-2H-chromen-2-yl]methyl}amine hydrochloride]
melting point: 153 to 155 °C

NC[C@H]1CCc2cc(F)cc(-c3c(Cl)cccc3Cl)c2O1 (as salt: hydrochloride) [Compound 57, {[(2R)-8-(2,6-dichlorophenyl)-6-fluoro-3,4-dihydro-2H-chromen-2-yl]methyl}amine hydrochloride]
melting point: 190 to 192 °C

NC[C@H]1CCc2cccc(-c3c(Cl)cccc3Cl)c2O1 (as salt: hydrochloride) [Compound 36, {[(2R)-8-(2,6-dichlorophenyl)-3,4-dihydro-2H-chromen-2-yl]methyl}amine hydrochloride]
melting point: 188 to 190 °C

NC[C@H]1CCc2ccc(F)c(-c3ccccc3Cl)c2O1 (as salt: hydrochloride) [Compound 71, ((2R)-8-(2-chlorophenyl)-7-fluorochroman-2-yl)methanamine hydrochloride]
melting point: 223 to 225 °C

CCNC[C@H]1CCc2cc(F)cc(-c3c(Cl)cccc3Cl)c2O1 (as salt: hydrochloride) [Compound 58, N-{[(2R)-8-(2,6-dichlorophenyl)-6-fluoro-3,4-dihydro-2H-chromen-2-yl]methyl}ethanamine hydrochloride]
melting point: > 225 °C

Cc1cc(Cl)ccc1-c1c(F)ccc2c1O[C@@H](CN)CC2 (as salt: hydrochloride) [Compound 72, ((2R)-8-(4-Chloro-2-methylphenyl)-7-fluorochroman-2-yl)methanamine hydrochloride]
melting point: 100 to 102 °C

CNC[C@H]1CCc2cccc(-c3ccc(Cl)cc3Cl)c2O1 [Compound 4, {[(2R)-8-(2,4-dichlorophenyl)-3,4-dihydro-2H-chromen-2-yl]methyl}methylamine hydrochloride]
Ki [1]: > 50 nM | Emax [2]: 80% | EC50 [2]: < 50 nM

NC[C@H]1CCc2cccc(-c3ccc(Cl)cc3Cl)c2O1 [Compound 13, {[(2R)-8-(2,4-dichlorophenyl)-3,4-dihydro-2H-chromen-2-yl]methyl}amine hydrochloride]
Ki [1]: ≤ 10 nM | Emax [2]: 100% | EC50 [2]: < 50 nM

NC[C@H]1C=Cc2cc(F)cc(-c3cc(Cl)ccc3Cl)c2O1 [Compound 63, {[(2R)-8-(2,5-dichlorophenyl)-6-fluoro-2H-chromen-2-yl]methyl}amine hydrochloride]
Ki [1]: ≤ 10 nM | Emax [2]: 90% | EC50 [2]: < 50 nM

NC[C@H]1CCc2cc(F)cc(-c3ccccc3-c3ccccc3)c2O1 (as salt: hydrochloride)
melting point: 98 °C
